Laboratory results reported in patent US20070112523A1 (priority 2003, published 2007).
pIC50: −log10 of the molar value.

How the values were obtained:
[1] = test system: vaccinia virus expressing the green fluorescent protein (vvGFP); assay: microbe, parasite or virus in culture; type: cell-based; conditions: for pIC50: Orthopoxvirus vaccinia, BSC-40, 24 h
[2] = in vitro; conditions: African green monkey
[3] = in vivo, po; cited from earlier work

Row | Structure (SMILES) | anti-viral effect in a cell culture assay (inhibition of viral replication) [1] | pIC50 [1] | CC50 [2] [µM] | bio-availability when administered orally [3]
1 | COc1c(CCNC(=O)c2cc3ccccc3cc2O)cccc1-c1ccc([N+](=O)[O-])cc1 [TTP-A, 3-hydroxy-naphthalene-2-carboxylic acid [2-(2-methoxy-4′-nitro-biphenyl-3-yl)-ethyl]-amide] | have an anti-viral effect | ~4.92 | ~900 | 
2 | COC(=O)C(Cc1ccc(-c2ccc(F)c(Cl)c2)cc1)NC(=O)c1cc(-c2ccc(C(F)(F)F)cc2)ccc1O (stereo not shown) [TTP-B, 3-(3′-chloro-4′-fluoro-biphenyl-4-yl)-2-[(4-hydroxy-4′-trifluoromethyl-biphenyl-3-carbonyl)-amino]-propionic acid methyl ester] | have an anti-viral effect | ~5.34 | ~600 | 
3 | Nc1ccn(C[C@@H](CO)OCP(=O)(O)O)c(=O)n1 [cidofovir] |  |  |  | low bio-availability
